# Target: T1, human Arginine Vasopressin Receptor 1b (AVPR1b) (Homo sapiens, UniProt P47901)
# T1 construct: expressed in transfected cells; host or cells: CHO (CHO-AVPR1b, kept under G418 selection)
# T1 sequence (P47901 1-424): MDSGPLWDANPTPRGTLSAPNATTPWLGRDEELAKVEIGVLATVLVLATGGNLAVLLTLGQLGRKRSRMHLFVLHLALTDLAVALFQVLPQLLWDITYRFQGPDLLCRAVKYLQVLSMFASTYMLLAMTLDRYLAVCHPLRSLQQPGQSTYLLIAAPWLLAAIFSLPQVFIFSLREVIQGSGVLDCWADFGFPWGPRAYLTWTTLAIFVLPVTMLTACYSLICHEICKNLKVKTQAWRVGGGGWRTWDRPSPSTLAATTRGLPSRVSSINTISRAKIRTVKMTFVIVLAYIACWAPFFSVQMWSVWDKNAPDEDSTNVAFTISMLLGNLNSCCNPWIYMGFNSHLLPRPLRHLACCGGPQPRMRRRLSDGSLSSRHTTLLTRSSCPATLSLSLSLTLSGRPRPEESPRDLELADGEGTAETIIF
# Assay: Vasopressin V1b receptor antagonist assay (FLIPR calcium, CHO-AVPR1b cells)
# Format: cell-based
# Procedure: The purpose of the assay was to determine the inhibitory effect of synthesized compounds on the Vasopressin V1b receptor. The assay was performed in Chinese Hamster Ovary (CHO) cells expressing the human Arginine Vasopressin Receptor 1b (AVPR1b). Arginine Vasopressin (AVP) evokes an increase in intracellular calcium in CHO-AVPR1b cells which is measured in a fluorescence assay on the FLIPR^TETRA using calcium sensitive dyes. Test compounds were assessed for their ability to affect the magnitude of the response to AVP, with antagonists showing a concentration-dependent reduction in the AVP-mediated fluorescence.
# CHO-AVPR1b cells were maintained in routine culture in T175 Flasks at 37° C., 5% CO2. The growth medium consisted of Ham's F12 media supplemented with 10% v/v fetal bovine serum, 1× non-essential amino acids, and 0.4 mg/ml Geneticin G418.
# Cells were harvested from T175 flasks when they were 80-90% confluent by first washing the cell monolayer with PBS and then dissociated using trypsin 0.05%/EDTA (3 mL for a T175 Flask). The flasks were incubated at room temperature until the cells detached. To the cell suspension, 10 ml of growth media was added and the cell density determined using the Vi-Cell automated cell counter. The cells were spun at 1000 rpm for 3 minutes, then the supernatant was carefully removed and discarded. The cell pellet was re-suspended at 6.0e^5 cells/ml in growth media. 25 μL of cells in growth media was dispensed into each well (15,000 cells per well) of a poly-D-lysine coated black, clear bottomed, 384-well plate. The plates were incubated at 37° C., 5% CO2 overnight.
# At the start of each assay day, the potency of AVP was assessed and an EC80 concentration determined for subsequent compound profiling. Assays were performed using a two-step addition protocol on the FLIPR^TETRA; first addition of 5 μl of control or test compound at 10× final in assay buffer with 15 min incubation at 37° C., 5% CO2 followed by 10 μl of AVP at 6× final concentration in assay buffer. Changes in fluorescence were monitored for 3 min after both additions on the FLIPR^TETRA using 470-495 nm excitation and 515-575 nm emission wavelengths. The assay buffer consisted of HBSS (+Ca/+Mg) supplemented with 20 mM HEPES, and for the preparation of the AVP agonist only, 0.1% w/v bovine serum albumin. The assay was initiated by the removal of growth media from the cells and replacement with 45 μl of Calcium-6 dye (Molecular Devices) prepared at 1× in assay buffer. Cells were loaded with dye for 60-90 min at 37° C., 5% CO2 before initiation of the FLIPR^TETRA protocol. […] For compound profiling, test compounds were first serially diluted in DMSO (10-point curve, 1:3 dilutions) then diluted 33.3-fold in assay buffer prior to addition to the dye loaded cells on the FLIPR^TETRA. At the end of the incubation period 10 μl of AVP in assay buffer containing 0.1% BSA was added at the previously determined EC80 concentration.
# In-plate controls for the assay included a Nelivaptan concentration-response curve as the reference V1b antagonist and an AVP concentration-response curve to confirm the reproducibility of the EC80 used for the compound challenge.
row,Structure (SMILES),IC50
1,"CC1COc2cc(Cl)ccc2N1C(=O)N1CC2(C1)CN(c1ncccn1)C2 (single isomer, unassigned) [1-83-B, (7-chloro-3-methyl-2,3-dihydro-4H-benzo[b][1,4]oxazin-4-yl)(6-(pyrimidin-2-yl)-2,6-diazaspiro[3.3]heptan-2-yl)methanone]",≥ 1 µM
2,"CC1COc2cc(F)ccc2N1C(=O)N1CC2(C1)CN(c1noc3ccccc13)C2 (single isomer, unassigned) [4-3-B]",≥ 1 µM
3,"CC1COc2cc(Cl)ccc2N1C(=O)N1CC2(C1)CN(c1cccnn1)C2 (single isomer, unassigned) [9-1-A]",≥ 1 µM
4,"CC1COc2cc(Cl)ccc2N1C(=O)N1CC2(C1)CN(c1cccnn1)C2 (single isomer, unassigned) [9-1-B]",≥ 1 µM
5,"CC1CN(C(=O)N2CC3(C2)CN(c2ccc(F)cn2)C3)c2ccc(Cl)cc2O1 (single isomer, unassigned) [9-3-A]",≥ 1 µM
6,"CC1CN(C(=O)N2CC3(C2)CN(c2ccc(F)cn2)C3)c2ccc(F)cc2O1 (single isomer, unassigned) [9-4-B]",≥ 1 µM
7,"CC1COc2cc(F)ccc2N1C(=O)N1CC2(C1)CN(c1ccc(F)cn1)C2 (single isomer, unassigned) [12-1-B]",≥ 1 µM
8,"O=C(N1CC2(C1)CN(c1ccc(F)cn1)C2)N1CCC(O)c2cc(Cl)ccc21 (single isomer, unassigned) [13-1-A]",≥ 1 µM
9,"O=C(N1CC2(C1)CN(c1ccccn1)C2)N1CCC(O)c2cc(Cl)ccc21 (single isomer, unassigned) [13-2-A]",≥ 1 µM
10,"O=C(N1CC2(C1)CN(c1ccccn1)C2)N1CCC(O)c2cc(Cl)ccc21 (single isomer, unassigned) [13-2-B]",≥ 1 µM
11,"O=C(N1CC2(C1)CN(c1cnccn1)C2)N1CCC(O)c2cc(Cl)ccc21 (single isomer, unassigned) [13-3-A]",≥ 1 µM
12,"CC1COc2cc(Cl)ccc2N1C(=O)N1CC2(C1)CN(c1noc3cccnc13)C2 (single isomer, unassigned) [18-3-B]",≥ 1 µM
13,"CC1COc2cc(F)ccc2N1C(=O)N1CC2(C1)CN(c1ncc(F)cn1)C2 (single isomer, unassigned) [18-4-B]",≥ 1 µM
14,"CC1COc2cc(F)c(F)cc2N1C(=O)N1CC2(C1)CN(c1ncccn1)C2 (single isomer, unassigned) [19-1-B]",≥ 1 µM
15,"CC1COc2cc(Cl)c(F)cc2N1C(=O)N1CC2(C1)CN(c1ncccn1)C2 (single isomer, unassigned) [19-2-B]",≥ 1 µM
16,"CC1COc2cc(F)c(F)cc2N1C(=O)N1CC2(C1)CN(c1cccnn1)C2 (single isomer, unassigned) [19-3-B]",≥ 1 µM
17,"CC1COc2cc(Cl)c(F)cc2N1C(=O)N1CC2(C1)CN(c1cccnn1)C2 (single isomer, unassigned) [19-4-A]",≥ 1 µM
18,"CC1COc2cc(F)c(F)cc2N1C(=O)N1CC2(C1)CN(c1ccc(F)cn1)C2 (single isomer, unassigned) [19-5-B]",≥ 1 µM
19,"CC1COc2cc(Cl)ccc2N1C(=O)N1CC2(C1)CN(c1cccnc1)C2 (single isomer, unassigned) [20-1-B]",≥ 1 µM
20,"Cc1cncc(N2CC3(CN(C(=O)N4c5ccc(F)cc5OCC4C)C3)C2)n1 (single isomer, unassigned) [20-2-A]",≥ 1 µM
21,"Cc1cncc(N2CC3(CN(C(=O)N4c5ccc(F)cc5OCC4C)C3)C2)n1 (single isomer, unassigned) [20-2-B]",≥ 1 µM
22,"CC1COc2cc(F)ccc2N1C(=O)N1CC2(C1)CN(c1cc(C#N)ccn1)C2 (single isomer, unassigned) [20-3-B]",≥ 1 µM
23,"Cc1ccnc(N2CC3(CN(C(=O)N4c5ccc(F)cc5OCC4C)C3)C2)c1 (single isomer, unassigned) [20-4-B]",≥ 1 µM
24,"Cc1cnc(N2CC3(CN(C(=O)N4c5ccc(Cl)cc5OCC4C)C3)C2)cn1 (single isomer, unassigned) [20-5-B]",≥ 1 µM
25,"CC1COc2cc(Cl)ccc2N1C(=O)N1CC2(C1)CN(c1cc(C#N)ccn1)C2 (single isomer, unassigned) [20-6-B]",≥ 1 µM
26,"Cc1nc(N2CC3(CN(C(=O)N4c5ccc(Cl)cc5OCC4C)C3)C2)ncc1F (single isomer, unassigned) [20-7-B]",≥ 1 µM
27,"COc1ccnc(N2CC3(CN(C(=O)N4c5ccc(Cl)cc5OCC4C)C3)C2)c1 (single isomer, unassigned) [20-8-B]",≥ 1 µM
28,"COc1ccnc(N2CC3(CN(C(=O)N4c5ccc(Cl)cc5OCC4C)C3)C2)n1 (single isomer, unassigned) [20-9-B]",≥ 1 µM
29,"Cc1nccnc1N1CC2(CN(C(=O)N3c4ccc(Cl)cc4OCC3C)C2)C1 (single isomer, unassigned) [20-10-A]",≥ 1 µM
30,"Cc1ccnc(N2CC3(CN(C(=O)N4c5ccc(Cl)cc5OCC4C)C3)C2)n1 (single isomer, unassigned) [20-12-B]",≥ 1 µM

# Next, values leading:
row,IC50,Structure (SMILES)
1,≥ 1 µM,O=C(N1CC2(C1)CN(c1ncccn1)C2)N1CCOc2cc(Cl)ccc21 [1-4]
2,≥ 1 µM,Cc1cccnc1N1CC2(CN(C(=O)N3CCOc4cc(Cl)ccc43)C2)C1 [1-5]
3,≥ 1 µM,Cc1ccnc(N2CC3(CN(C(=O)N4CCOc5cc(Cl)ccc54)C3)C2)c1 [1-14]
4,≥ 1 µM,COc1ccnc(N2CC3(CN(C(=O)N4CCOc5cc(Cl)ccc54)C3)C2)c1 [1-15]
5,≥ 1 µM,O=C(N1CC2(C1)CN(c1ncccc1F)C2)N1CCc2cc(Cl)ccc21 [1-76]
6,≥ 1 µM,O=C(N1CC2(C1)CN(c1ccccn1)C2)N1CCc2cc(Cl)ccc21 [1-77]
7,≥ 1 µM,O=C(N1CC2(C1)CN(c1cccc(F)n1)C2)N1CCc2cc(Cl)ccc21 [1-78]
8,≥ 1 µM,O=C(N1CC2(C1)CN(c1cc(F)ccn1)C2)N1CCc2cc(Cl)ccc21 [1-79]
9,≥ 1 µM,O=C(N1CC2(C1)CN(c1cccnn1)C2)N1CCOc2cc(Cl)c(F)cc21 [1-81]
10,≥ 1 µM,"O=C(N1CC2(C1)CN(c1noc3ccccc13)C2)N1CCOc2cc(Cl)ccc21 [4-1, (6-(benzo[d]isoxazol-3-yl)-2,6-diazaspiro[3.3]heptan-2-yl)(7-chloro-2,3-dihydro-4H-benzo[b][1,4]oxazin-4-yl)methanone]"
11,≥ 1 µM,O=C(N1CC2(C1)CN(c1ncc(F)cn1)C2)N1CCOc2cc(Cl)ccc21 [4-2]
12,≥ 1 µM,CC1COc2cc(F)ccc2N1C(=O)N1CC2(C1)CN(c1noc3ccccc13)C2 (centres unmarked) [4-3]
13,≥ 1 µM,"Cc1nc(N2CC3(CN(C(=O)N4CCOc5cc(Cl)ccc54)C3)C2)ncc1F [6-1, (7-chloro-2,3-dihydro-4H-benzo[b][1,4]oxazin-4-yl)(6-(5-fluoro-4-methylpyrimidin-2-yl)-2,6-diazaspiro[3.3]heptan-2-yl)methanone]"
14,≥ 1 µM,O=C(N1CC2(C1)CN(c1ccccn1)C2)N1CCOc2cc(Cl)ccc21 [8-2]
15,≥ 1 µM,O=C(N1CC2(C1)CN(c1cnccn1)C2)N1CCOc2cc(Cl)ccc21 [8-3]
16,≥ 1 µM,O=C(N1CC2(C1)CN(c1ccc(F)cn1)C2)N1CCOCc2cc(Cl)ccc21 [8-4]
17,≥ 1 µM,O=C(N1CC2(C1)CN(c1ccc(F)cn1)C2)N1CCc2cc(Cl)ccc21 [8-11]
18,≥ 1 µM,O=C(N1CC2(C1)CN(c1ccccn1)C2)N1CCOCc2cc(Cl)ccc21 [8-12]
19,≥ 1 µM,O=C(N1CC2(C1)CN(c1cnccn1)C2)N1CCOCc2cc(Cl)ccc21 [8-13]
20,≥ 1 µM,O=C(N1CC2(C1)CN(c1cnccn1)C2)N1CCc2cc(Cl)ccc21 [8-14]

# — patent US12152038B2, “Vasopressin receptor antagonists and products and methods related thereto” (Neumora Therapeutics, Inc., priority 2017, dated 2024)
